Assays:
intracellular cAMP = test: cAMP enzymatic immunoassay of FRT cell lysates; assay type: cell-based, rat; details: compounds 2 μM, 10 minutes, forskolin 0.5 μM
Procedure: cAMP activity was measured using the BIOTRAK enzymatic immunoassay (Amersham) of FRT cell lysates after incubation with the compounds for 10 minutes in the presence of 0.5 μM forskolin.
(§1) An analysis of compound specificity was also performed.

[1] = tested on: UTP/calcium activated Cl− channel; test: UTP/calcium activated Cl− current, short circuit current in human bronchial epithelial cells; assay type: cell-based; details: pretreatment 2 μM, apical UTP
Procedure: as §1

ΔF508-CFTR [2] = molecular target: T1, ΔF508-CFTR (Homo sapiens, UniProt P13569, DEL508-508); test: Short-circuit (apical membrane Cl−) current in FRT cells expressing ΔF508-CFTR, Ussing chamber; assay type: cell-based; set-up: expressed in transfected cells; details: for EC50 / maximal current compared with genistein: after forskolin 20 μM; for EC50: 27° C. 24 hours, read-out: potency for ΔF508-CFTR currents; for maximal current compared with genistein: genistein 50 μM; for potentiation of the response of ΔF508-CFTR to forskolin: low concentrations of forskolin, potentiator 100 nM
Procedure: Clonal populations of Fischer rat thyroid (FRT) epithelial cells stably co-expressing human ΔF508-CFTR and the high-sensitivity halide-sensing green fluorescent analog YFP-H148Q/I152L (Galietta et al., A.S. (2001) FEBS Lett. 499, 220-224) were generated by liposome transfection and limiting dilution with Zeocin/G418 selection. More than 100 clones were evaluated for high fluorescence and ΔF508-CFTR plasma membrane targeting after growth at 27° C. for 24 hours. For screening, cells were cultured on plastic in Coon's modified F12 medium supplemented with 10% fetal bovine serum, 2 mM L-glutamine, 100 U/ml penicillin, and 100 μg/ml streptomycin, and plated on black 96-well microplates (Corning-Costar 3904) at 30,000 cells/well. For short-circuit measurements cells were cultured on Snapwell permeable supports (Corning-Costar) at 500,000 cells/insert. Human nasal epithelium cells from CF patients were cultured on Snapwell inserts and allowed to differentiate in a hormone-supplemented medium (Galietta et al., Am. J. Physiol., […]). Some measurements were done using stably transfected FRT cells expressing YFP-H148Q and wildtype- or G551D-CFTR (Galietta et al., (2001) J. Biol. Chem. 276, 19723-19728). Patch clamp experiments were done on ΔF508-CFTR-expressing FRT cells plated in 35-mm Petri dishes.
Using chamber experiments were performed 7-9 days after plating ΔF508-CFTR expressing FRT cells on Snapwell inserts. The basolateral solution contained (in mM): 130 NaCl, 2.7 KCl, 1.5 KH2PO4, 1 CaCl2, 0.5 MgCl2, 10 glucose, 10 Na-Hepes (pH 7.3). In the apical bathing solution 65 mM NaCl was replaced by Na gluconate, and CaCl2 was increased to 2 mM. Solutions were bubbled with air and maintained at 37° C. The basolateral membrane was permeabilized with 250 μg/ml amphotericin B. The hemichambers were connected to a DVC-1000 voltage clamp (World Precision Instruments) via Ag/AgCl electrodes and 1 M KCl agar bridges for recording short-circuit current.
Experiments were done after basolateral membrane permeabilization and in the presence of a transepithelial Cl^− gradient, so that short-circuit current represents apical membrane Cl^− current. […] Cells were plated on a permeable support to generate a polarized epithelium, cultured for 5-7 days, and then incubated at 27° C. for 24 hours. Transepithelial chloride current was measured in a modified Ussing chamber in the presence of a chloride gradient.

ΔF508-CFTR [3] = molecular target: T1, ΔF508-CFTR; test: Cell-attached patch-clamp of ΔF508-CFTR channel activity in FRT cells; assay type: cell-based; set-up: expressed in transfected cells; details: 100 nM, forskolin 20 μM
Procedure: Experiments were performed in the cell-attached configuration of the patch-clamp technique on FRT cells expressing ΔF508-CFTR. Cells were seeded at a density of 10^4 cells/well and grown at 37° C. for 24-48 hours and then incubated for 24-48 hours at 27° C. to allow trafficking of the ΔF508 protein to the plasma membrane. Borosilicate glass pipettes were fire polished to obtain tip resistances of 2-4 MQ. Currents were sampled at 500 Hz using a patch-clamp amplifier (EPC-7, List, Darmstadt) and low-pass filtered using a 4-pole Bessel filter set at a cutoff frequency of 250 Hz and digitized at 500 Hz using an ITC-16 data translation interface (Instrutech). The extracellular (bath) solution contained (in mM): 150 NaCl, 1 CaCl2, 1 MgCl2, 10 glucose, 10 mannitol, and 10 TES (pH 7.4). The pipette solution contained (in mM): 120 CsCl, 1 MgCl2, 10 TEA-Cl, 0.5 EGTA, 1 Mg-ATP, and 10 Hepes (pH 7.3). Membrane conductances were monitored by alternating the membrane potential between +80 and −100 mV. Current-voltage relationships were generated by applying voltage pulses between −100 and +100 mV in 20 mV steps. Analysis of open channel probability (Po), mean channel open time (To), and mean channel closed time (Tc) was done using recordings of at least three minute intervals (Taddei et al., FEBS Lett. 558:52-56 (2004)). […]

ΔF508-CFTR [4] = molecular target: T1, ΔF508-CFTR; test: Short-circuit current in primary nasal epithelial cells from ΔF508 homozygous subject; assay type: cell-based; set-up: expressed in transfected cells; details: 27° C. 20-24 hours, amiloride, forskolin 20 μM
Procedure: For short-circuit measurements cells were cultured on Snapwell permeable supports (Corning-Costar) at 500,000 cells/insert. […] Patch clamp experiments were done on ΔF508-CFTR-expressing FRT cells plated in 35-mm Petri dishes.
Human nasal epithelial cells from ΔF508 homozygote subjects were cultured as polarized monolayers on permeable supports for transepithelial short-circuit current measurement.

T1 sequence (P13569 with tags, fused parts or gaps DEL508-508): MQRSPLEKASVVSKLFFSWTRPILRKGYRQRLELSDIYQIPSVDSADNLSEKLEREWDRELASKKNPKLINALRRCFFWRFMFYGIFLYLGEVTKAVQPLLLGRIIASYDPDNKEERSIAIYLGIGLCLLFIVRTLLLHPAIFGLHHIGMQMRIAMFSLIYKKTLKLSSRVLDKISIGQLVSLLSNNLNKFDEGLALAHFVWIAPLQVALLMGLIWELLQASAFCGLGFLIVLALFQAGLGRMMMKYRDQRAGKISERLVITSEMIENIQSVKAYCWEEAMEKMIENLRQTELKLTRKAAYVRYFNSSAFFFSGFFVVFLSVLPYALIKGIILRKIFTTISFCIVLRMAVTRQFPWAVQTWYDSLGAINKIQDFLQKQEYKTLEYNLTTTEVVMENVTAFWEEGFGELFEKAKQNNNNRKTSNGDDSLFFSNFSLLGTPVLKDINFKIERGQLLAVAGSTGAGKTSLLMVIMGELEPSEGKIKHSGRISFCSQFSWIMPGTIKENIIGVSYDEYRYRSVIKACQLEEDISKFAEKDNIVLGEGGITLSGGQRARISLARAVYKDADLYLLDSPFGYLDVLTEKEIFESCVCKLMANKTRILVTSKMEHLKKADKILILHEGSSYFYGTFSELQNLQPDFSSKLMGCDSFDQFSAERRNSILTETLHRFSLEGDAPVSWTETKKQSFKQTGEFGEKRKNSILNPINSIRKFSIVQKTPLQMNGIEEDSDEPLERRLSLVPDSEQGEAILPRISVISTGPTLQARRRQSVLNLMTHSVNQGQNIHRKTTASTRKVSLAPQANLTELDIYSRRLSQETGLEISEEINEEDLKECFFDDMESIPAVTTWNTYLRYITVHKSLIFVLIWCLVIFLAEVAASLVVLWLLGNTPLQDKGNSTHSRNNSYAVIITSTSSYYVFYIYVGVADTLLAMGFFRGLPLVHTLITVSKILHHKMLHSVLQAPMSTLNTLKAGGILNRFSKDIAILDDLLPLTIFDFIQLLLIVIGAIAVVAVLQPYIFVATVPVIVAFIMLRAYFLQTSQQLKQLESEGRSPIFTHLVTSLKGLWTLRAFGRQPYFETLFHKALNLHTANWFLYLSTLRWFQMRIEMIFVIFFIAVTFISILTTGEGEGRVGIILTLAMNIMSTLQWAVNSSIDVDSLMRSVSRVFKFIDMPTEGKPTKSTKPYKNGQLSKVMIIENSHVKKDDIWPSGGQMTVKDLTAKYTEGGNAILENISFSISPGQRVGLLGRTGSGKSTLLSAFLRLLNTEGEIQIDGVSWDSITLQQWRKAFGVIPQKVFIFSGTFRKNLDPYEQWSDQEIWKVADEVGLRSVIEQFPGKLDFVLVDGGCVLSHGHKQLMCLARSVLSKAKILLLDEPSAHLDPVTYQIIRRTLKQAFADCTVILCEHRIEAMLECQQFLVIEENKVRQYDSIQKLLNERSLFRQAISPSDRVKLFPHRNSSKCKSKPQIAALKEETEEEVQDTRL

Compound: C=CCNC(=O)c1c[nH]c2ccc(S(=O)(=O)N(C)c3ccccc3OCC)cc2c1=O [Compound S-1, 6-[(2-Ethoxy-phenyl)-methyl-sulfamoyl]-4-oxo-1,4-dihydro-quinoline-3-carboxylic acid allylamide]
- cAMP level (intracellular cAMP): did not increase cAMP above the level induced by forskolin
- effect on magnitude or kinetics of calcium-activated Cl− current [1]: no effect
- EC50 (ΔF508-CFTR [2]): < 0.1 µM
- maximal current compared with genistein (ΔF508-CFTR [2]): comparable to or greater than that produced by 50 μM genistein
- potentiation of the response of ΔF508-CFTR to forskolin (ΔF508-CFTR [2]): significant increase in current induced by low concentrations of forskolin
- ΔF508-CFTR channel activity (ΔF508-CFTR [3]): large increase in channel activity
- activation of ΔF508-CFTR current (ΔF508-CFTR [4]): significant activation

Compound: CC(C)c1ccc(NC(=O)C(c2ccccc2)N(C)C(=O)Cc2c[nH]c3ccccc23)cc1 (centres unmarked) [Compound P-1, 2-[(2-1H-Indol-3-yl-acetyl)-methyl-amino]-N-(4-isopropyl-phenyl)-2-phenyl-acetamide]
- cAMP level (intracellular cAMP): did not increase cAMP above the level induced by forskolin
- effect on magnitude or kinetics of calcium-activated Cl− current [1]: no effect
- EC50 (ΔF508-CFTR [2]): < 0.1 µM
- maximal current compared with genistein (ΔF508-CFTR [2]): comparable to or greater than that produced by 50 μM genistein
- potentiation of the response of ΔF508-CFTR to forskolin (ΔF508-CFTR [2]): significant increase in current induced by low concentrations of forskolin
- ΔF508-CFTR channel activity (ΔF508-CFTR [3]): large increase in channel activity
- activation of ΔF508-CFTR current (ΔF508-CFTR [4]): significant activation
